# Assay results reported in PMC3919815, “Anti-Tumor Effects of Novel 5-O-Acyl Plumbagins Based on the Inhibition of Mammalian DNA Replicative Polymerase Activity” (PLoS ONE, 2014).
# Read-outs that look alike come from different tables or passages of the source.
# Tests used:
# [1] = system: mammalian pols; test: DNA polymerase activity inhibition, summary over the panel; format: biochemical
# Description: Pol α was purified from calf thymus by immunoaffinity column chromatography as described by Tamai et al.. Recombinant rat pol β was purified from Escherichia coli JMpβ5 as described by Date et al.. The human pol γ catalytic gene was cloned into pFastBac. Histidine-tagged enzyme was expressed using the BACTO-BAC HT Baculovirus Expression System according to the manufacturer's instructions (Life Technologies, Frederick, MD, USA) and purified using ProBound resin (Invitrogen Japan, Tokyo Japan). Human pols δ and ε were purified by nuclear fractionation of human peripheral blood cancer cells (Molt-4) using the second subunit of pol δ and ε-conjugated affinity column chromatography, respectively. A truncated form of human pol η (residues 1–511) tagged with His6 at its C-terminal was expressed in E. coli cells and purified as described by Kusumoto et al.. A recombinant mouse pol ι tagged with His6 at its C-terminal was expressed and purified by Ni–NTA column chromatography. A truncated form of pol κ (residues 1–560) with 6× His-tags attached at the C-terminus was overexpressed in E. coli and purified as described by Ohashi et al.. Recombinant human His-pol λ was overexpressed and purified according to a method described by Shimazaki et al.. Recombinant human His-pol μ was overexpressed in E. coli BL21 and purified using Glutathione Sepharose 4B (GE Healthcare Bio-Science Corp., Piscataway, NJ, USA) column chromatography according to the method for pol λ preparation by Shimazaki et al.. Pol α from a higher plant, cauliflower, was purified from the inflorescence structure according to the methods outlined by Sakaguchi et al.. Recombinant rice (Oryza sativa L. cv. Nipponbare) pol λ tagged with His6 at the C-terminus was expressed in E. coli and purified as described by Uchiyama et al.. Calf TdT, Taq pol, T4 pol, T7 RNA polymerase, and T4 polynucleotide kinase were purchased from Takara Bio Inc. (Kyoto, Japan). The Klenow fragment of pol I from E. coli was purchased from Worthington Biochemical Corp. (Freehold, NJ, USA). Bovine pancreas deoxyribonuclease I was obtained from Stratagene Cloning Systems (La Jolla, CA, USA).
# The reaction mixtures for calf pol α, rat pol β, plant pol α, and prokaryotic pols have been described previously, [35]; those for pol γ as well as pols δ and ε were previously described by Umeda et al. and Ogawa et al., respectively. Those for pols η, ι, and κ were the same as for pol α, and those for pols λ and μ were the same as for pol β. For the pol reactions, poly(dA)/oligo(dT)18 (A/T, 2/1) and dTTP were used as the DNA template-primer substrate and nucleotide (dNTP; 2′-deoxynucleoside-5′-triphosphate) substrate, respectively. For the TdT reactions, oligo(dT)18 (3′-OH) and dTTP were used as the DNA primer substrate and nucleotide substrate, respectively.
# The chemically synthesized 5-O-acyl plumbagins (2a–j) were dissolved in distilled dimethyl sulfoxide (DMSO) to various concentrations and sonicated for 30 s. Subsequently, 4 µL aliquots were mixed with 16 µL of each enzyme (0.05 units) in 50 mM Tris-HCl at pH 7.5, containing 1 mM dithiothreitol, 50% glycerol (by vol), and 0.1 mM ethylenediaminetetraacetic acid and held at 0°C for 10 min. These inhibitor-enzyme mixtures in 8 µL volumes were next added to 16 µL of enzyme standard reaction mixture and incubated at 37°C for 60 min, except for Taq pol, which was incubated at 74°C for 60 min. Activity without inhibitor was considered 100%, and the relative activity was determined for each inhibitor concentration. One unit of pol activity was defined as the amount of each enzyme that catalyzed the incorporation of 1 nmol dTTP into synthetic DNA template primers in 60 min, at 37°C, and under standard reaction conditions, [35].
# [2] = system: nine human cancer cell lines; test: Cancer cell viability, MTT assay, summary over the panel; format: cell-based; settings: range over nine cell lines, 48 h
# Protocol: The following human cancer cell lines were obtained from the American Type Culture Collection (Manassas, VA, USA): lung (A549), prostate (DU145 and PC3), colon (HCT116 and HT-29), cervix (HeLa), hepatocellular liver (HepG2), breast (MCF-7), and pancreatic cancer (PANC-1). These cells were cultured in RPMI 1640 medium supplemented with 10% fetal bovine serum, penicillin (100 units/mL), streptomycin (100 µg/mL), and 1.6 mg/mL NaHCO3 at 37°C in a humid atmosphere of 5% CO2/95% air. For the cell viability assay, cells were seeded at 1×10^3 cells/well in a 96-well microplate with various concentrations of the test compounds, and incubated for 48 h. MTT (3-(4,5-dimethylthiazol-2-yl)-2,5-diphenyl tetrazolium bromide) solution was added to a final concentration 0.6 mg/mL in Milli-Q purified water for 2 h, after which time the medium was discarded and the cells lysed in DMSO. A540 was then measured in a microplate reader (Model 680, Bio-Rad Laboratories, Hercules, CA, USA).
smiles,measurement,setting,value
"CCCCCCCC/C=C\CCCCCCCC(=O)Oc1cccc2c1C(=O)C=C(C)C2=O [2f, 5-O-oleoyl-2-methyl-1,4-naphthoquinone]","inhibitory effect on A and B families of pols, fold stronger than on X and Y families",[1],1.5- to 2 fold
same,IC50,"[1]; B family of pols, read-out: 50% inhibition dose",4.8 to 5.3 µM
same,IC50,"[1]; X family of pols, read-out: 50% inhibition dose",9.2 to 10.6 µM
same,IC50,"[1]; Y family of pols, read-out: 50% inhibition dose",7.6 to 8.2 µM
same,IC50,"[1]; all of the mammalian pols (11 species), read-out: IC50 values",4.5 to 10.6 µM
same,influence of excess poly(rC) and BSA on pol inhibition,[1]; data not shown,little or no influence
same,"pol inhibitory activity, fold more potent than aphidicolin","[1]; pols α, δ and ε, versus aphidicolin IC50 of ref 45",> 2 fold
same,LD50 values,[2],2.9 to 21.0 µM
